Laboratory results published in PubChem BioAssay (NCI).
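Interpolation was linear, between the two tested concentrations surrounding the appropriate level; five concentrations were tested over 48 hours in 96-well plates. TGI marks complete inhibition of growth.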 Where a SMILES comes first, the peptide text is derived from it. [ ]: non-standard residue; d: D form. Ac5c = NC1(C(=O)O)CCCC1

Key:
Assay in all cases: inhibition of tumour cell growth, NCI panel, 48 h
[1] = test system: MDA-MB-435
[2] = test system: SF-539 CNS
[3] = test system: K-562 leukemia
[4] = test system: MALME-3M melanoma
[5] = test system: SF-268 CNS
[6] = test system: HCC-2998 colon
[7] = test system: OVCAR-5 ovarian
[8] = test system: 786-0 renal
[9] = test system: MOLT-4 leukemia
[10] = test system: SNB-19 CNS
[11] = test system: LOX IMVI melanoma
[12] = test system: U251 CNS
[13] = test system: TK-10 renal
[14] = test system: NCI-H522 lung
[15] = test system: A549 NSCLC
[16] = test system: HS 578T breast
[17] = test system: SK-OV-3 ovarian
[18] = test system: SK-MEL-2 melanoma
[19] = test system: KM12 colon
[20] = test system: NCI-H23 lung
[21] = test system: SK-MEL-28 melanoma
[22] = test system: IGROV1 ovarian
[23] = test system: SW-620 colon
[24] = test system: ACHN renal
[25] = test system: MCF7 breast
[26] = test system: MDA-MB-231 breast
[27] = test system: HCT-116 colon
[28] = test system: UO-31 renal
[29] = test system: SK-MEL-5 melanoma
[30] = test system: SNB-75 CNS
[31] = test system: RXF 393 renal
[32] = test system: OVCAR-3 ovarian
[33] = test system: A498 renal
[34] = test system: RPMI-8226 leukemia
[35] = test system: NCI-H460 lung
[36] = test system: CAKI-1 renal
[37] = test system: OVCAR-4 ovarian
[38] = test system: DU-145 prostate
[39] = test system: HOP-62 NSCLC
[40] = test system: BT-549 breast
[41] = test system: NCI/ADR-RES ovarian
[42] = test system: SR leukemia
[43] = test system: HOP-92 NSCLC
[44] = test system: HT29 colon
[45] = test system: PC-3 prostate
[46] = test system: MDA-N
[47] = test system: SN12C renal
[48] = test system: M14 melanoma
[49] = test system: UACC-257 melanoma
[50] = test system: HCT-15 colon
[51] = test system: OVCAR-8 ovarian
[52] = test system: COLO 205 colon
[53] = test system: T-47D breast
[54] = test system: EKVX NSCLC
[55] = test system: SF-295 CNS
[56] = test system: UACC-62 melanoma
[57] = test system: HL-60(TB) leukemia
[58] = test system: CCRF-CEM leukemia
[59] = test system: NCI-H226 lung

For `NCC(=O)NC1(C(=O)O)CCCC1` (H-Gly-[Ac5c]-OH), the TGI [1] was greater than 100 µM, the TGI [2] was greater than 100 µM and the TGI [3] was greater than 100 µM. It also gave a TGI [4] greater than 100 µM, a TGI [5] greater than 100 µM and a TGI [6] greater than 100 µM. It also gave a TGI [7] greater than 100 µM, a TGI [8] greater than 100 µM and a TGI [9] greater than 100 µM. The TGI [10] was greater than 100 µM, the TGI [11] was greater than 100 µM and the TGI [12] was greater than 100 µM. For the same molecule, the TGI [13] was greater than 100 µM, the TGI [14] was greater than 100 µM and the TGI [15] was greater than 100 µM. For the same molecule, the TGI [16] was greater than 100 µM, the TGI [17] was greater than 100 µM and the TGI [18] was greater than 100 µM. For the same molecule, the TGI [19] was greater than 100 µM, the TGI [20] was greater than 100 µM and the TGI [21] was greater than 100 µM. For the same molecule, the TGI [22] was greater than 100 µM, the TGI [23] was greater than 100 µM and the TGI [24] was greater than 100 µM. The TGI [25] was greater than 100 µM, the TGI [26] was greater than 100 µM and the TGI [27] was greater than 100 µM. The TGI [28] was greater than 100 µM, the TGI [29] was greater than 100 µM and the TGI [30] was greater than 100 µM. The TGI [31] was greater than 100 µM, the TGI [32] was greater than 100 µM and the TGI [33] was greater than 100 µM. For the same molecule, the TGI [34] was greater than 100 µM, the TGI [35] was greater than 100 µM and the TGI [36] was greater than 100 µM. It also gave a TGI [37] greater than 100 µM, a TGI [38] greater than 100 µM and a TGI [39] greater than 100 µM. The TGI [40] was greater than 100 µM, the TGI [41] was greater than 100 µM and the TGI [42] was greater than 100 µM. The TGI [43] was greater than 100 µM, the TGI [44] was greater than 100 µM and the TGI [45] was greater than 100 µM. It also gave a TGI [46] greater than 100 µM, a TGI [47] greater than 100 µM and a TGI [48] greater than 100 µM. It also gave a TGI [49] greater than 100 µM, a TGI [50] greater than 100 µM and a TGI [51] greater than 100 µM. The TGI [52] was greater than 100 µM, the TGI [53] was greater than 100 µM and the TGI [54] was greater than 100 µM. It also gave a TGI [55] greater than 100 µM and a TGI [56] greater than 100 µM.

Work on `C=CC(O)C#Cc1cnc(OC)nc1OC` (stereo not given) yielded a TGI [57] of 43.9 µM, a TGI [1] greater than 100 µM and a TGI [2] greater than 100 µM. The TGI [3] was 66.6 µM, the TGI [5] was greater than 100 µM and the TGI [6] was greater than 100 µM. The TGI [7] was greater than 100 µM, the TGI [8] was greater than 100 µM and the TGI [9] was greater than 100 µM. It also gave a TGI [10] greater than 100 µM, a TGI [11] greater than 100 µM and a TGI [12] greater than 100 µM. The TGI [13] was greater than 100 µM, the TGI [14] was greater than 100 µM and the TGI [15] was greater than 100 µM. The TGI [16] was greater than 100 µM, the TGI [18] was greater than 100 µM and the TGI [58] was 47.9 µM. For the same molecule, the TGI [19] was greater than 100 µM, the TGI [20] was greater than 100 µM and the TGI [21] was greater than 100 µM. For the same molecule, the TGI [22] was greater than 100 µM, the TGI [23] was greater than 100 µM and the TGI [24] was greater than 100 µM. It also gave a TGI [25] greater than 100 µM, a TGI [26] greater than 100 µM and a TGI [27] greater than 100 µM. For the same molecule, the TGI [28] was greater than 100 µM, the TGI [29] was greater than 100 µM and the TGI [30] was greater than 100 µM. The TGI [31] was greater than 100 µM, the TGI [32] was greater than 100 µM and the TGI [33] was 33 µM. For the same molecule, the TGI [35] was greater than 100 µM, the TGI [36] was greater than 100 µM and the TGI [59] was greater than 100 µM. For the same molecule, the TGI [37] was greater than 100 µM, the TGI [38] was greater than 100 µM and the TGI [39] was greater than 100 µM. For the same molecule, the TGI [40] was greater than 100 µM, the TGI [41] was greater than 100 µM and the TGI [42] was greater than 100 µM. It also gave a TGI [43] greater than 100 µM, a TGI [44] greater than 100 µM and a TGI [45] greater than 100 µM. For the same molecule, the TGI [46] was greater than 100 µM, the TGI [47] was greater than 100 µM and the TGI [48] was greater than 100 µM. It also gave a TGI [49] greater than 100 µM, a TGI [50] greater than 100 µM and a TGI [51] greater than 100 µM. It also gave a TGI [52] greater than 100 µM, a TGI [53] greater than 100 µM and a TGI [54] greater than 100 µM. The TGI [55] was greater than 100 µM and the TGI [56] was greater than 100 µM.

`O=C(Cc1ccc(OCc2cccc(Cl)c2)cc1)NO` gave a TGI [57] of 44.9 µM, a TGI [1] greater than 100 µM and a TGI [2] greater than 100 µM. The TGI [3] was greater than 100 µM, the TGI [5] was greater than 100 µM and the TGI [6] was greater than 100 µM. For the same molecule, the TGI [7] was greater than 100 µM, the TGI [8] was 43.5 µM and the TGI [9] was 33.1 µM. For the same molecule, the TGI [10] was greater than 100 µM, the TGI [11] was 49 µM and the TGI [12] was greater than 100 µM. For the same molecule, the TGI [13] was greater than 100 µM, the TGI [14] was greater than 100 µM and the TGI [15] was greater than 100 µM. The TGI [16] was greater than 100 µM, the TGI [17] was greater than 100 µM and the TGI [18] was greater than 100 µM. It also gave a TGI [58] of 42.5 µM, a TGI [19] greater than 100 µM and a TGI [20] greater than 100 µM. For the same molecule, the TGI [21] was greater than 100 µM, the TGI [22] was greater than 100 µM and the TGI [23] was greater than 100 µM. For the same molecule, the TGI [24] was 86 µM, the TGI [25] was greater than 100 µM and the TGI [26] was greater than 100 µM. For the same molecule, the TGI [27] was greater than 100 µM, the TGI [28] was 50.4 µM and the TGI [29] was greater than 100 µM. It also gave a TGI [30] greater than 100 µM, a TGI [31] greater than 100 µM and a TGI [32] greater than 100 µM. It also gave a TGI [33] of 27 µM, a TGI [34] of 50.8 µM and a TGI [35] greater than 100 µM. It also gave a TGI [36] of 68.2 µM, a TGI [59] of 65.4 µM and a TGI [37] of 82.7 µM. For the same molecule, the TGI [38] was 66.2 µM, the TGI [39] was greater than 100 µM and the TGI [40] was greater than 100 µM. It also gave a TGI [41] of 39.3 µM, a TGI [42] of 32.5 µM and a TGI [43] greater than 100 µM. The TGI [44] was greater than 100 µM, the TGI [45] was greater than 100 µM and the TGI [46] was greater than 100 µM. The TGI [47] was 76.5 µM, the TGI [48] was greater than 100 µM and the TGI [49] was greater than 100 µM. The TGI [50] was greater than 100 µM, the TGI [51] was 34.5 µM and the TGI [52] was greater than 100 µM. It also gave a TGI [53] of 46.2 µM, a TGI [54] greater than 100 µM and a TGI [55] greater than 100 µM. It also gave a TGI [56] of 55.4 µM.
